Like-named read-outs stand apart in the source and are kept apart here.
Legend:
Format in all cases: biochemical
[1] = molecular target: T1, PI3K delta (Homo sapiens, UniProt O00329); assay: PI3 kinase assay (Kinase-Glo luminescence), PI3K delta; conditions: Enzymatic Data; read-out: PI3K delta IC50 [umol]
T1 construct: for the full-length p110-d subunit are generated and fused by overlapping PCR; His tag (C); made in house; host or cells: baculovirus; Tn5 (Trichoplusia ni) or TiniPro insect cells
T1 sequence (O00329 with tags, fused parts or gaps limits assumed): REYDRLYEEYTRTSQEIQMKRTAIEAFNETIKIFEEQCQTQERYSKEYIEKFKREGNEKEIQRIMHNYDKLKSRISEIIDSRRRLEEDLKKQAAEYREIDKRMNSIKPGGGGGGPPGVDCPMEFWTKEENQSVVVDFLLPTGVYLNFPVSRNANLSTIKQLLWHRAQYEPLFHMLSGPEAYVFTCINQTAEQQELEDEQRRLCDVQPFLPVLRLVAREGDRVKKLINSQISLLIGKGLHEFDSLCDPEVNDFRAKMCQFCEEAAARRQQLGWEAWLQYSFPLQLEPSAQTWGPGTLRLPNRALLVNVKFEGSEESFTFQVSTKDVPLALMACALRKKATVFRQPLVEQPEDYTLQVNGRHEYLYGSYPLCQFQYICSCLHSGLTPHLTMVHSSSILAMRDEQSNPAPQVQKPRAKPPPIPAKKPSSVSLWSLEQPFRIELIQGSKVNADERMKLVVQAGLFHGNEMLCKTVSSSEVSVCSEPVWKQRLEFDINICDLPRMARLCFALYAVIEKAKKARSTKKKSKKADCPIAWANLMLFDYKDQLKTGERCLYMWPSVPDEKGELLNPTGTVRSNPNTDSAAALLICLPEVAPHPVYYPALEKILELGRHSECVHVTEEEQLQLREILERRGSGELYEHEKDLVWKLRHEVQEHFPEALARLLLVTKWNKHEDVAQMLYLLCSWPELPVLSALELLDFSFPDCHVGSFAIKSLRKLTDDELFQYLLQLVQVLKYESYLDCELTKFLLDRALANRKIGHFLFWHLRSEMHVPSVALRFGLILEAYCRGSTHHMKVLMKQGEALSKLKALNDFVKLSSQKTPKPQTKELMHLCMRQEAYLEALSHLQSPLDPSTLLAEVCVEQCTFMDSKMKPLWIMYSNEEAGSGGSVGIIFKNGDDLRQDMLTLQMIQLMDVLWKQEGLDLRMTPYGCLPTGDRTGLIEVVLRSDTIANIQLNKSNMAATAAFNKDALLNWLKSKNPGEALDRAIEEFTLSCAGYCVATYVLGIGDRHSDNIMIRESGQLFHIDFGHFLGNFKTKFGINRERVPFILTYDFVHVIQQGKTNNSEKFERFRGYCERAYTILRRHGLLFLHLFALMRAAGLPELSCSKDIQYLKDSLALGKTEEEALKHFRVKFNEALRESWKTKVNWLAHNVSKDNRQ
Experimental: (§1) In a more preferred assay, the kinase reaction is performed in a final volume of 10 μL per well of a low volume non binding CORNING, 384 well black plate (Cat. No. #3676). The final concentrations of ATP and phosphatidyl inositol (PI) in the assay are 1 μM and 10 μg/mL respectively. The reaction is started by the addition of ATP.
(§2) The components of the assay are added per well as follows:
(§3) 50 nL test compounds in 90% DMSO per well, in columns 1-20, 8 concentrations (1/3 and 1/3.33 serial dilution step) in single. • Low control: 50 nL of 90% DMSO in half the wells of columns 23-24 (0.45% in final). • High control: 50 nL of reference compound (e.g. compound of Example 7 in WO 2006/122806, incorporated by reference hereinin that regard) in the other half of columns 23-24 (2.5 μM in final). • Standard: 50 nL of reference compound as just mentioned diluted as the test compounds in columns 21-22 • 20 mL ‘buffer’ are prepared per assay: • 200 μL of 1M TRIS HCl pH7.5 (10 mM in final) • 60 μL of 1M MgCl2 (3 mM in final) • 500 μL of 2M NaCl (50 mM in final) • 100 μL of 10% CHAPS (0.05% in final) • 200 μL of 100 mM DTT (1 mM in final) • 18.94 mL of nanopure water • 10 mL ‘PI’ are prepared per assay: • 200 μL of 1 mg/ml L-alpha-Phosphatidylinositol (Liver Bovine, Avanti Polar Lipids Cat. No. 840042C MW=909.12) prepared in 3% OctylGlucoside (10 μg/ml in final) • 9.8 mL of ‘buffer’ • 10 mL ‘ATP’ are prepared per assay: • 6.7 μL of 3 mM stock of ATP giving a final concentration of 1 μM per well • 10 mL of ‘buffer’ • 2.5 mL of each PI3K construct are prepared per assay in ‘PI’ with the following final concentration : • 10 nM PI3K alfa B-1075 • 25 nM beta BV-949 • 10 nM delta BV-1060 • 150 nM gamma BV-950 • 5 μL of ‘PI/PI3K’ are added per well. • 5 μl ‘ATP’ are added per well to start the reaction. • The plates are then incubated at room temperature for 60 minutes (alfa, beta, delta) or 120 minutes (gamma). • The reaction is terminated by the addition of 10 μL Kinase-Glo (Promega Cat. No. #6714). • The assay plates are read after 10 minutes in Synergy 2 reader (BioTek, Vermont USA) with an integration time of 100 milliseconds and sensitivity set to 191. • Output : The High control is around 60'000 counts and the Low control is 30'000 or lower • This luminescence assay gives a useful Z′ ratio between 0.4 and 0.7
(§4) […] is determined by a four parameter curve fitting routine that comes aloneg with “excel fit”. A 4 Parameter logistic equation is used to calculate IC50 values (IDBS XLfit) of the percentage inhibition of each compound at 8 concentrations (usually 10, 3.0, 1.0, 0.3, 0.1, 0.030, 0.010 and […]). Alternatively, IC50 values are calculated using idbsXLfit model 204, which is a 4 parameter logistic model.
(§5) Testing with the following kinases in the test system mentioned above, with the kinases given in the following tables, the following IC 50 data can be obtained: […]

[2] = molecular target: T2, PI3K gamma (Homo sapiens, UniProt P48736); assay: PI3 kinase assay (Kinase-Glo luminescence), PI3K gamma; conditions: Enzymatic Data; read-out: PI3K gamma IC50 [umol]
T2 construct: PI3Kγ BV-950 p110g(D144aa)-C-Term His Tag; His tag (C); made in house; host or cells: construct from the Roger Williams lab (MRC LMB) in pVL1393; baculovirus; Tn5 (Trichoplusia ni) or TiniPro insect cells
T2 sequence (P48736 144-1102 limits assumed): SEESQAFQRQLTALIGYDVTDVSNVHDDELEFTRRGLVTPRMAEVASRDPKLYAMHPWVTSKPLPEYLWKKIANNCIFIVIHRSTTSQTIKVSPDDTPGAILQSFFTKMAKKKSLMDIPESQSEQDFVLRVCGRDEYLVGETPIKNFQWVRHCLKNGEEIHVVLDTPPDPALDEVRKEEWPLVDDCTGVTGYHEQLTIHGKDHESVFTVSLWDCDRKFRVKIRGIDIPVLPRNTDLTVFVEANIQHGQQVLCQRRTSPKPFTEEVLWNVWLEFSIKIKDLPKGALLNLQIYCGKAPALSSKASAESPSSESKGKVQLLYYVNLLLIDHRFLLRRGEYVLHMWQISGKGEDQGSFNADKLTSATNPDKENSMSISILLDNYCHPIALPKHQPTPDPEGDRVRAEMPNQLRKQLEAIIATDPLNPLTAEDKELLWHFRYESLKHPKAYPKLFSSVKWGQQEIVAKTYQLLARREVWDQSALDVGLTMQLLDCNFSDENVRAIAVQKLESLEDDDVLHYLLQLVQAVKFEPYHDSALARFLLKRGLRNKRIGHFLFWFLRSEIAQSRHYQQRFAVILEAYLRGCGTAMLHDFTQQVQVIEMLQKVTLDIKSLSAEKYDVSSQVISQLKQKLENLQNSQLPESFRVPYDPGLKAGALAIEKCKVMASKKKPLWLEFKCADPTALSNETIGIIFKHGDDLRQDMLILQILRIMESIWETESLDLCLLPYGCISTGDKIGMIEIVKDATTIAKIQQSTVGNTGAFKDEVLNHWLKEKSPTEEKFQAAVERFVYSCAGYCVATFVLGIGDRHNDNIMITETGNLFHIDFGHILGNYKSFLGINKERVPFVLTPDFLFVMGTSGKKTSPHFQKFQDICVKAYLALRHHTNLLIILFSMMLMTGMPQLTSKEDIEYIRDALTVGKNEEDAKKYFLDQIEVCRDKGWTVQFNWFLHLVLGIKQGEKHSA
Experimental: as §1, §2, §4

[3] = molecular target: T3, PI3K beta (Homo sapiens, UniProt P42338); assay: PI3 kinase assay (Kinase-Glo luminescence), PI3K beta; conditions: Enzymatic Data; read-out: PI3K beta IC50 [umol]
T3 construct: for the full-length p110-b subunit are generated and fused by overlapping PCR; His tag (C); made in house; host or cells: baculovirus; Tn5 (Trichoplusia ni) or TiniPro insect cells
T3 sequence (P42338 with tags, fused parts or gaps limits assumed): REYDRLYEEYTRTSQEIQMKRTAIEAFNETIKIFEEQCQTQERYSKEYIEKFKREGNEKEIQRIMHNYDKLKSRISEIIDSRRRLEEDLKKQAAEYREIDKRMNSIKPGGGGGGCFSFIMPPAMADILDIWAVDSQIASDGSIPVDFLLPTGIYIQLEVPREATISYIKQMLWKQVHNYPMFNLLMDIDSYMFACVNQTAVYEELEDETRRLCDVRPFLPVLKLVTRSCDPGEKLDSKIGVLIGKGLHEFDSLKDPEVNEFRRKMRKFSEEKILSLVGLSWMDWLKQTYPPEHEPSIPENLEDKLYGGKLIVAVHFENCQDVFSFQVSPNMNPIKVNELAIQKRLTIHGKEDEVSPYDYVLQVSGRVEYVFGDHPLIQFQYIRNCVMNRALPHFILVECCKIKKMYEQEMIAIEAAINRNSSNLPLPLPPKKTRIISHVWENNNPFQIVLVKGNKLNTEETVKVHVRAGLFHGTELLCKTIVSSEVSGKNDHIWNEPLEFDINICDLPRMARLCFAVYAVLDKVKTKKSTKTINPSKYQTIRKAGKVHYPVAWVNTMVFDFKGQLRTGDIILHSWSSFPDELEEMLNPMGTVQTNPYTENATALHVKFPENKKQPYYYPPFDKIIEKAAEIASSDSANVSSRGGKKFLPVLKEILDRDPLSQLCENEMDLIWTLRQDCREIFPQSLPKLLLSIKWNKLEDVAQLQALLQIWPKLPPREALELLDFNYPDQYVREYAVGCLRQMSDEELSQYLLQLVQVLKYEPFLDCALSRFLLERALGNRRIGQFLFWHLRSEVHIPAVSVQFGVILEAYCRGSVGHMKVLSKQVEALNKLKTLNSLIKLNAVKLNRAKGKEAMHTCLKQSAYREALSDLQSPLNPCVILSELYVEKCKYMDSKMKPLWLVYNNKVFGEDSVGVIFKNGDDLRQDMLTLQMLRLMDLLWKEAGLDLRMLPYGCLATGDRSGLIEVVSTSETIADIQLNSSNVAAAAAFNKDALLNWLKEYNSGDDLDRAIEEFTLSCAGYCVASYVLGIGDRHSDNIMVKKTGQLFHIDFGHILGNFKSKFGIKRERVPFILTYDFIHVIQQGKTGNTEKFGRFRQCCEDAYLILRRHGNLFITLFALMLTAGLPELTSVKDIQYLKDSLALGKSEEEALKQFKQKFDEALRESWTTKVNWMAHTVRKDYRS
Experimental: as §1, §2, §3, §4, §5

[4] = molecular target: T4, PI3K alfa (Homo sapiens, UniProt P42336); assay: PI3 kinase assay (Kinase-Glo luminescence), PI3K alfa
T4 construct: for the p110-a subunit (with a deletion of the first 20 amino acids); His tag (C); made in house; host or cells: baculovirus; Tn5 (Trichoplusia ni) or TiniPro insect cells
T4 sequence (P42336 with tags, fused parts or gaps limits assumed): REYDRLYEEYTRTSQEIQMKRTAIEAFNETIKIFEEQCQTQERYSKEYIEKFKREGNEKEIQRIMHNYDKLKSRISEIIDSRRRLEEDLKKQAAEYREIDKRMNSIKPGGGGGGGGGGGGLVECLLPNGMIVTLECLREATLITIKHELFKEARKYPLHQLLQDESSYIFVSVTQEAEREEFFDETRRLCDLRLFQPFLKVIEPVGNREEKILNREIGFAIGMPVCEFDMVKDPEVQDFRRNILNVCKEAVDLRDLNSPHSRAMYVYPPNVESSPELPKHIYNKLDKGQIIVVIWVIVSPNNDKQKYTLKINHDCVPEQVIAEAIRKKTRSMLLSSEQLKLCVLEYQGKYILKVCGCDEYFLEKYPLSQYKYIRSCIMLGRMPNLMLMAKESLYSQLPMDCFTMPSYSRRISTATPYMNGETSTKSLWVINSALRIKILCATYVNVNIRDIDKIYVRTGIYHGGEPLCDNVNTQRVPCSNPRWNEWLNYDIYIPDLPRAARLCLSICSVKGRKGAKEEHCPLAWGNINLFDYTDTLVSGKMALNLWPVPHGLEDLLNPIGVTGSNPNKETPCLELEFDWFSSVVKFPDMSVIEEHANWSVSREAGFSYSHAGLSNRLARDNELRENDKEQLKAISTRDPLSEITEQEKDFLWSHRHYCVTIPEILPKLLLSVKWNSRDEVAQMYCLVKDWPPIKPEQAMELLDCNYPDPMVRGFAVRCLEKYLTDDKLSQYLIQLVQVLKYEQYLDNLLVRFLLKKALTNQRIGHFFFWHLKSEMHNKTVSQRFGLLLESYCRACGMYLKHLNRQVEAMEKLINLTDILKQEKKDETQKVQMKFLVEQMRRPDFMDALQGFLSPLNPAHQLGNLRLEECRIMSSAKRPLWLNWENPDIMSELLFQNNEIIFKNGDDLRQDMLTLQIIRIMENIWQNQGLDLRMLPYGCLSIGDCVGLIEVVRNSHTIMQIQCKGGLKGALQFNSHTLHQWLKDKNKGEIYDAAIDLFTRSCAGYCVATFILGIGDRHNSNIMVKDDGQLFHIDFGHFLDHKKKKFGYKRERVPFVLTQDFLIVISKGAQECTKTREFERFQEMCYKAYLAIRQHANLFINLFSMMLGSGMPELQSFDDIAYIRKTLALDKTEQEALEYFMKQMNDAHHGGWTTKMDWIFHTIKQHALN
Experimental: as §1, §2, §3, §4, §5

[5] = Enzymatic Data, read-out: PI3K alfa IC50 [umol]

Compound	IC50 ([4]; read-out: IC50 (μm) PI3K-alfa)	other results
COc1cc(-c2cnc3ccc(-c4cnc(N)c(C(F)(F)F)c4)nn23)c(F)cc1C(=O)NCCn1ccnc1 [Example 161, 4-[6-(6-Amino-5-trifluoro-methyl-pyridin-3-yl)-imidazo (1,2-b]pyridazin-3-yl]-5-fluoro-N-(2-imidazol-1-yl-ethyl)-2-methoxy-benzamide]		IC50 [1]: 9 nM; IC50 [2]: 2400 nM; IC50 [3]: 28 nM; IC50 [4, 5]: 3 nM
COc1ccc(-c2ccc3ncc(-c4ccc(NS(C)(=O)=O)cc4)n3n2)cc1OC [Example 44, N-{4-[6-(3,4-Dimethoxy-phenyl)-imidazo [1,2-b]pyridazin-3-yl]-phenyl}-methane-sulfonamide]		IC50 [1]: 336 nM; IC50 [2]: 3500 nM; IC50 [3]: 2220 nM; IC50 [4, 5]: 297 nM
COc1ccc(-c2ccc3ncc(-c4ccc(S(C)(=O)=O)cc4)n3n2)cc1OC [Example 5, 6-(3,4-Dimethoxy-phenyl)-3-(4-methanesulfonyl-phenyl)-imidazo[1,2-b]pyridazine]	1.64 nM	
CCOC(=O)c1cc(-c2ccc3ncc(-c4ccc(OC)c(OC)c4)n3n2)ccc1OC [Example 8, 5-[3-(3,4-Dimethoxy-phenyl)-imidazo[1,2-b]pyridazin-6-yl]-2-methoxy-benzoic acid ethyl ester]	6 nM	
NC(=O)c1ccc(-c2ccc3ncc(-c4cnc(N)c(C(F)(F)F)c4)n3n2)cc1 [Example 11, 4-[3-(6-Amino-5-trifluoromethyl-pyridin-3-yl)-imidazo[1,2-b]pyridazin-6-yl]-benzamide]	372 nM	
Nc1ncc(-c2ccc3ncc(-c4cnc(N)c(C(F)(F)F)c4)n3n2)cc1C(F)(F)F [Example 6]	3 nM	
CC(C)(C)OC(=O)NCCCOc1ccc(-c2ccc3ncc(-c4cnc(N)c(C(F)(F)F)c4)n3n2)cc1OC(F)(F)F [Example 55]		IC50 [1]: > 9100 nM; IC50 [3]: > 9100 nM; IC50 [4, 5]: 6120 nM
COc1cc(-c2ccc3ncc(-c4cnc(N)c(C(F)(F)F)c4)n3n2)ccc1OCCCNC(=O)OC(C)(C)C [Example 10, (3-{4-[3-(6-Amino-5-trifluoromethyl-pyridin-3-yl)-imidazo[1,2-b]pyridazin-6-yl]-2-methoxy-phenoxy}-propyl)-carbamic acid tert-butyl ester]	118 nM	
CC(C)N1CCC(Oc2ccc(-c3cnc4ccc(-c5cnc(N)c(C(F)(F)F)c5)nn34)cn2)CC1 [Example 29, 5-{3-[6-(1-Isopropyl-piperidin-4-yloxy)-pyridin-3-yl]-imidazo[1,2-b]pyridazin-6-yl}-3-trifluoromethyl-pyridin-2-ylamine]	7 nM	
COc1cc(-c2cnc3ccc(-c4ccc(C(N)=O)cc4)nn23)ccc1OCCCNC(=O)OC(C)(C)C [Example 21, (3-{4-[6-(4-Carbamoyl-phenyl)-imidazo[1,2-b]pyridazin-3-yl]-2-methoxy-phenoxy}-propyl)-carbamic acid tert-butyl ester]	292 nM	
Nc1ncc(-c2ccc3ncc(-c4ccc(Nc5nc(-c6ccccc6)cs5)nc4)n3n2)cc1C(F)(F)F [Example 28, 5-{3-[6-(4-Phenyl-thiazol-2-ylamino)-pyridin-3-yl]-imidazo[1,2-b]pyridazin-6-yl}-3-trifluoromethyl-pyridin-2-ylamine]	12 nM	
Nc1ncc(-c2ccc3ncc(-c4ccc(F)nc4)n3n2)cc1C(F)(F)F [Example 27, 5-[3-(6-Fluoro-pyridin-3-yl)-imidazo[1,2-b]pyridazin-6-yl]-3-trifluoromethyl-pyridin-2-ylamine]	1.4 nM	
COc1ccc(-c2cnc3ccc(-c4ccc(OCCO)c(C(C)=O)c4)nn23)cc1OC [Example 16, 1-[5-[3-(3,4-Dimethoxy-phenyl)-imidazo[1,2-b]pyridazin-6-yl]-2-(2-hydroxy-ethoxy)-phenyl]-ethanone]	135 nM	
COc1ccc(-c2ccc3ncc(-c4ccc(OC)c(OC)c4)n3n2)cc1OC [Example 1, 3,6-Bis-(3,4-dimethoxy-phenyl)-imidazo[1,2-b]pyridazine]	3 nM	
CS(=O)(=O)c1ccc(-c2cnc3ccc(-c4cnc(N)c(C(F)(F)F)c4)nn23)cc1 [Example 18, 5-[3-(4-Methanesulfonyl-phenyl)-imidazo[1,2-b]pyridazin-6-yl]-3-trifluoro-methyl-pyridin-2-ylamine]	9.5 nM	
NC(=O)c1ccc(-c2ccc3ncc(-c4ccc(C(N)=O)cc4)n3n2)cc1 [Example 7, 4-[3-(4-Carbamoylphenyl)-imidazo[1,2-b]pyridazin-6-yl]-benzamide]	14 nM	
COc1cc(-c2ccc3ncc(-c4cnc(N)c(C(F)(F)F)c4)n3n2)ccc1OCCCN [Example 14, 5-{6-[4-(3-Amino-propoxy)-3-methoxy-phenyl]-imidazo[1,2-b]pyridazin-3-yl}-3-trifluoromethyl-pyridin-2-ylamine]	39 nM	
Nc1ncc(-c2cnc3ccc(-c4cnc(N)c(C(F)(F)F)c4)nn23)cn1 [Example 79, 5-[6-(6-Amino-5-trifluoro-methyl-pyridin-3-yl)-imidazo [1,2-b]pyridazin-3-yl]-pyrimidin-2-ylamine]		IC50 [1]: 9 nM; IC50 [3]: 4 nM; IC50 [4, 5]: 15 nM
COc1ccccc1-c1ccc2ncc(-c3ccc(C(N)=O)cc3)n2n1 [Example 9, 4-[6-(2-Methoxy-phenyl)-imidazo[1,2-b]pyridazin-3-yl]-benzamide]	854 nM	
Nc1ncc(-c2ccc3ncc(-c4ccc(NCc5ccccc5)nc4)n3n2)cc1C(F)(F)F [Example 30, 5-[3-(6-Benzylamino-pyridin-3-yl)-imidazo[1,2-b]pyridazin-6-yl]-3-trifluoro-methyl-pyridin-2-ylamine]	2.3 nM	
Nc1ncc(-c2ccc3ncc(-c4ccc(N5CCOCC5)nc4)n3n2)cc1C(F)(F)F [Example 31, 5-[3-(6-Morpholin-4-yl-pyridin-3-yl)-imidazo[1,2-b]pyridazin-6-yl]-3-trifluoromethyl-pyridin-2-ylamine]	4.5 nM	
COc1ccc(-c2ccc3ncc(-c4ccc(-c5ccoc5)cc4)n3n2)cc1OC [Example 19, 6-(3,4-Dimethoxy-phenyl)-3-(4-furan-3-yl-phenyl)-imidazo[1,2-b]pyridazine]	120 nM	
Nc1ncc(-c2ccc3ncc(-c4ccc(O)nc4)n3n2)cc1C(F)(F)F [Example 32, 5-[6-(6-Amino-5-trifluoromethyl-pyridin-3-yl)-imidazo[1,2-b]pyridazin-3-yl]-pyridin-2-ol]	4.9 nM	
COc1cc(-c2ccc3ncc(-c4ccc(C(N)=O)cc4)n3n2)ccc1OCCCN [Example 17, 4-{6-[4-(3-Amino-propoxy)-3-methoxy-phenyl]-imidazo[1,2-b]pyridazin-3-yl}-benzamide]	53 nM	
COc1ccc(-c2ccc3ncc(-c4ccc(-c5ccc[nH]5)cc4)n3n2)cc1OC [Example 20, 6-(3,4-Dimethoxy-phenyl)-3-[4-(1H-pyrrol-2-yl)-phenyl]-imidazo[1,2-b]pyridazine]	122 nM	

— patent US20100311729A1, “Substituted imidazopyridazines and pyrrolopyrimidines as lipid kinase inhibitors” (priority 2007, published 2010)
